Measurements: patent US20040265350A1, “Use of a porous carrier” (priority 2000, published 2004)
Entries after “also recorded” stand apart in the source; their conditions may differ.

Experiments:
[1] = test system: human osteosarcoma like cells(HOS); experiment: MTT assay of cell proliferation, HOS cells; type: cell-based
Source text: (§1) Two osteosarcoma cell lines and primary human osteoblasts were used in the cell culture studies of the effect of increased MTX concentration and duration time. The MG63 cells were obtained from a […] (ATCC-CRL-1427). The human osteosarcoma like cells(HOS) cells were obtained from a […] (ATCC-CRL-1543). The human osteoblast like cells(HOB) were isolated from patients undergoing total knee replacement. The cell lines were each cultured in complete Dulbecco's Modified Eagle's Medium (DMEM) (Gibco, UK) supplemented with 10% foetal calf serum (FCS) (Gibco, UK), non essential amino acids (1%), ascorbic acid (150˜g/ml), L glutamine (0.02M), HEPES (0.01M), penicillin (100 units/ml) and streptomycin (100˜g/ml), at 37° C. and 5% CO2 in a 99% humidified sterile atmosphere. The medium was changed at least twice a week to prevent nutrient depletion-and waste product accumulation.
(§2) Once the cells had become confluent, they were removed by emptying the medium, washing with 10 ml PBS and adding 5 ml of 0.25% Trypsin and incubating at 37° C. […] Next the cells were counted under a light microscope and concentrations of 13.2×10^4 cells/ml made up. […]
(§3) The effects of MTX on the proliferation of ostersarcoma cells was measured by MTT assay. […] The absorbance of each well was then read by a Dynatech microplate reader (BioRad Model 3550) at a wavelength of 595 nm and 5 sec mixing time. […]

MG63 cells = experiment: MTT assay of cell proliferation, MG63 cells; type: cell-based, human
Source text: as §1, §2, §3

[2] = test system: human osteoblast like cells(HOB); experiment: MTT assay of cell proliferation, HOB cells; type: cell-based
Source text: as §1, §2, §3

[3] = Leaching of MTX from HA discs with or without PLG; type: physicochemical
Procedure: Initially the release of MTX from HA using the polymer PLG (75:25) was performed to establish whether this polymer {which is expected to degrade at a slower rate than PLG (50:50)} induced a slowed rate of release of MTX. HA discs from the second batch were used for the experiment and approximately the same quantities of MTX, PLG and acetonitrile were used. The experiment was labelled as follows; IA and IB were loaded by centrifugation and IB contains polymer, IC and ID were loaded by the vacuum technique and ID contains polymer. The following results-were obtained [formula]

osteoblast cells = conditions: 5 mM MTX; cited from earlier work
osteosarcoma cells = conditions: 5 mM MTX; cited from earlier work
[4] = Leaching of Prednisolone from HA discs with or without PLG; type: physicochemical; conditions: presence of PLG (50:50)
Procedure: Serial dilution experiments were performed to obtain the following calibration chart and equation for Prednisolone. [formula]
Four HA discs from the second batch were used for these experiments. Approximately […] of Prednisolone was used in each of the acetonitrile solutions. The experiments were labelled 1AA, 1BB, 1CC and 1DD. 1M and 1BB were loaded by centrifugation and 1BB contained 0.1 g of PLG (50:50). 1CC and 1DD were loaded using the vacuum technique and 1DD contained 0.1 g of PLG (50:50). The standard leaching experiments were carried out and the results presented below. [formula]

[5] = Solubility seen while preparing loading solutions; type: physicochemical
Source text: After drying the block in an oven overnight the vacuum method was again used to inject a solution of PLG (85:15) (0.105 g) in acetonitrile (50 cm^3). Again the block was oven dried overnight.

[6] = Leaching of cis-platin from HA block into distilled water, absorbance at 206 nm; type: physicochemical
Procedure: No yellow colour was observed within the block.
Leaching experiments were carried out in distilled water (35 cm^3) with stirring, in the absence of light and closed to prevent evaporation. Absorbance was recorded at λ 206 nm at appropriate intervals and all caclulations required the extinction coefficient 3057 mol^−1 dm^3 cm^−1. [formula]

[7] = Leaching of [Fe(phen)3][ClO4]2 from HA blocks into distilled water, UV-Vis at 512 nm; type: physicochemical
Source text: Leaching with stirring of solutions to avoid inaccuracies due to concentration gradients. (According to present arrangements however some anomalies may result from occasional jarring of the block by the magnetic follower).
Half of the block prepared in method 3 was immersed in distilled water (30 cm3) and the absorbance recorded by UV-Vis spectrometry at wavelength 512 nm. An extinction coefficient of 10,620 mol^−1 dm^3 cm^−1 was used in all calculations.
Vacuum method 3 was used for loading the compounds onto HA, again blocks of porosity 83.35% (0006) were used with approximate dimensions, 20×20×15mm, weight 3.6-3.8 g. […] […] Again the blocks were dried in the oven. (In order to fully dissolve the polymer in acetronitrile stirring for up to 1 hour is required before loading).
All leaching experiments were undertaken using the cut halves of the loaded blocks with distilled water (30 cm3) and constant stirring. […] This buoyancy is likely to be due to the polymer blocking pores in the HA trapping air inside the block. […] Again absorbance at λ 512 nm was recorded at appropriate intervals. [formula]

[8] = 1 day exposure, MTX 0.1 to 1000 μg/ml
[9] = 3 day exposure, same concentrations
[10] = block loaded with complex and PLG (50:50)

**Q.** For `CN(Cc1cnc2nc(N)nc(N)c2n1)c1ccc(C(=O)N[C@@H](CCC(=O)O)C(=O)O)cc1` [MTX, Methotrexate], which “cell proliferation (MTT)” value [1, 8] is on record?
**A.** Its value is “only a small decrease in proliferation”.

**Q.** And the “cell proliferation (MTT)” value [1, 9]?
**A.** The value was “reduced level of cell proliferation compared with the 1 day exposure samples”.

**Q.** And the “cell proliferation (MTT)” value (MG63 cells; MG63, 1 day exposure, MTX 0.1 to 1000 μg/ml)?
**A.** Its value is “decrease in proliferation as MTX concentration rose”.

**Q.** What about the “cell proliferation (MTT)” value (MG63 cells; MG63, 3 day exposure, rising MTX concentration) of the same compound?
**A.** Its value is “erratic behaviour; also recorded: affected only slightly”.

**Q.** And the “cell proliferation (MTT)” value [2, 8]?
**A.** Its value is “decrease in proliferation as MTX concentration rose”.

**Q.** What about the “cell proliferation (MTT)” value [2, 9] of the same compound?
**A.** The value was “reduced level of cell proliferation compared with the 1 day exposure samples; also recorded: affected to a similar degree to the HOS cells”.

**Q.** And the “effect of PLG (50:50) on release of MTX from HA” value ([3]; presence of PLG (50:50), weighted discs)?
**A.** The value was “slower release rate”.

**Q.** What about the “effect of PLG (75:25) on release of MTX from HA” value ([3]; presence of PLG (75:25)) of the same compound?
**A.** Its value is “does slow the release”.

**Q.** What about the “decrease in proliferation of osteoblast cells” value (osteoblast cells) of the same compound?
**A.** The value was 30%.

**Q.** What about the “decrease in proliferation of osteosarcoma cells” value (osteosarcoma cells) of the same compound?
**A.** The value was 90%.

**Q.** Which results are given for `C[C@]12C=CC(=O)C=C1CC[C@@H]1[C@@H]2[C@@H](O)C[C@@]2(C)[C@H]1CC[C@]2(O)C(=O)CO` [Prednisolone]?
**A.** effect of polymer on release of Prednisolone from HA [4]: slowed; solubility in acetonitrile ([5]; acetonitrile): dissolves

**Q.** Which results are given for `N.N.[Cl][Pt][Cl]` [cis-platin]?
**A.** time after which almost the entire drug / the majority is released from HA ([6]; no polymer, distilled water, stirring, dark): 45 min; effect of PLG on release of cis-platin from HA ([6]; presence of PLG (50:50)): slowed

**Q.** Which results are given for “Iron(II) Tris Phenanthrolin Perchlorate [[Fe(phen)3][ClO4]2]”?
**A.** time after which almost all complex is released from the block ([7]; block loaded by vacuum method 3 from methanol, no polymer, distilled water, stirring): 170 min; effect of PLG impregnation on release of complex [7, 10]: dramatically slows the release; time at which continuing release of complex is still observed [7, 10]: > 5 days; effect of PLG impregnation on release of complex ([7]; block loaded with complex and PLG (50:50), listed as Iron Tris Phen): significantly slows the release; time after which approximately all / the majority of complex is released ([7]; control block loaded from acetonitrile, no PLG): 300 min; further quantity released after solution replaced with distilled water ([7]; method 3 block, replaced after 330 minutes, read after a further 20 hours): 0.14 mg; release profile of complex from the block ([7]; no polymer): two phases; also recorded: initial burst

**Q.** With Poly(DL-Lactide-co-Glycolide) [PLG] as the compound, how does the solubility in methanol [5] read?
**A.** Its solubility in methanol is “not soluble”.

**Q.** What about the solubility in water [5] of the same compound?
**A.** The solubility in water was “not soluble”.
